For one molecule, IC50 and inhibition results are on record in patent publication US9221781B2, “Synthesis of polyhydroxy chromenone compounds and their anti-tumor effects” (BEIJING SHENOGEN PHARMA GROUP LTD., priority 2012, dated 2015).

Holding throughout (format): cell-based
Assay [1] deals with prostate cancer cells PC-3. As to the kind of experiment: Inhibition of prostate cancer cells PC-3 in vitro by MTT method. The settings on record: PC-3, MTT, 72 hours, FIG. 8; read-out: IC50, in vitro inhibition on cell line PC-3 of prostatic cancer. The procedure: A: Inhibition of Prostate Cancer Cells PC-3 In Vitro by the Compounds by MTT Method
The […] cancer PC-3 cells were subseeded in a 96-well culture plate at a concentration of 3×10^3 cells/well and maintained in medium containing 10% F12K fetal bovine serum. PC-3 cells were treated with the test compound dissolved in DMSO at the concentration of 0, 1, 2, 4, 8, 10 and 20 μM for 72 hours. OD value was tested by MTT method, and the inhibition percentage was calculated.

Assay [2] concerns lung cancer H460 cells. As to the kind of experiment: Inhibition of lung cancer cells H460 in vitro by MTT method. The settings on record: Homo sapiens, NCI-H460, 72 hours, FIG. 5, read-out: IC50, in vitro inhibition on cell line H460 of lung cancer. The procedure: A: Inhibition of Lung Cancer Cells H460 In Vitro by the Compounds by MTT Method
The lung cancer H460 cells were subseeded in a 96-well culture plate at a concentration of 4.0×10^3 cells/well and maintained in phenol red free medium containing 2.5% CS-FBS at 37° C. in a 5% CO2 atmosphere. H460 cells were treated with a test compound dissolved in DMSO at the concentration of 0, 1, 2, 4, 8, 10 and 20 μM for 72 hours. OD value was tested by MTT method, and the inhibition percentage was calculated.
In general terms: Tetrazolium assays rely on reduction of a dye to a coloured formazan, in cell work by metabolically active cells.

Assay [3] has as its system Molt-4 cells. As to the kind of experiment: Inhibition of growth of acute lymphoblastic leukemia Molt-4 cells by MTT method. The settings on record: Homo sapiens, 10^−6M, 72 hours, read-out: The inhibition percentage of cell proliferation by the compounds with a concentration of 10^−6M, Molt-4 cells. The protocol:
B: Inhibition of Growth of Acute Lymphoblastic Leukemia Molt-4 Cells by the Compounds Detected by MTT Method
The acute lymphoblastic leukemia Molt-4 cells from ATCC were maintained in RPMI-1640 and 10% fetal calf serum at 37° C. in a 5% CO2 atmosphere. The cells were subseeded in a 96-well culture plate at a concentration of 6×10^3 cells/well and maintained RPMI-1640 and 10% fetal calf serum at 37° C. 5%CO2 atmosphere. Molt-4 cells were treated with a test compound dissolved in DMSO at the concentration of 0, 10^−4M, 10^−5M, 10^−6M, 10^−7M, 10^−8M for 72 hours. OD value was tested by MTT method, and the inhibition ratio was calculated.

The subject of assay [4] is Daudi cells. As to the kind of experiment: Inhibition of human B lymphoma Daudi cells by CellTiter-Glo Luminescent Assay in vitro. Particulars: Homo sapiens, 72 hours, read-out: Inhibition of viability of cells in vitro IC50, Daudi cells. The procedure:
A: Inhibition of Human B Lymphoma Daudi Cells by CellTiter-Glo® Luminescent Assay In Vitro
The Human B Lymphoma Daudi cells from ATCC were maintained in IMDM and 10% fetal calf serum at 37° C. in a 5% CO2 atmosphere. The cells were subseeded in a 96-well culture plate at a concentration of 6×10^3 cells/well. Human B Lymphoma Daudi cells were treated with a test compound dissolved in DMSO at the concentration of 0, 0.3 μM, 0.5 μM, 1 μM, 2 μM, 3 μM, 10 μM, 20 μM, 30 μM, 50 μM and 100 μM for 72 hours. Treated cells were examined by CeliTiter-Glo® Luminescent Cell Viability Assay Kit (Promega), and luminescence were recorded with Envision.

The subject of assay [5] is MCF7 cells. The assay is described as follows: CellTiter-Glo Luminescent Cell Viability Assay on ER-positive breast cancer MCF-7 cells in vitro. Particulars: Homo sapiens, 72 hours, read-out: Inhibition of viability of breast cancer cells IC50, MCF7 cells. The procedure: B: CellTiter-Glo® Luminescent Cell Viability Assay on ER-Positive Breast Cancer MCF-7 Cells In Vitro:
MCF7 cells from ATCC were maintained in an Dulbecco's modified Eagle medium (DMEM), and 10% fetal calf serum at 37 in a 5% CO2 atmosphere. Cells were placed at a density of 6×10^3 cells per well in a 96-well plate. MCF 7 cells were treated with a test compound dissolved in DMSO at the concentration of 0, 0.3 μM, 0.5 μM, 1 μM, 2 μM, 3 μM, 5 μM, 10 μM, 20 μM, 30 μM, 50 μM and 100 μM for 72 hours. Treated cells were examined through CellTiter-Glo® Luminescent Cell Viability Assay Kit (Promega), and luminescence were recorded with Envision.
(In general: Cellular ATP, detected with luciferase, serves as a proxy for viable cell number.)

The subject of assay [6] is MDA-MB-231 cells. The assay is described as follows: CellTiter-Glo Luminescent Cell Viability Assay on ER-negative breast cancer MDA-MB-231 cells in vitro. The settings on record: Homo sapiens, 72 hours, read-out: Inhibition of viability of breast cancer cells IC50, MDA-MB-231 cells. The protocol: A: CellTiter-Glo® Luminescent Cell Viability Assay on ER-Negative Breast Cancer MDA-MB-231 In Vitro:
MDA-MB-231 cells were maintained at 37° C., in a 5% CO2 atmosphere in DMEM and 10% fetal calf serum. The cells were placed at a density of 6×10^3 cells per well in a 96-well plate. MDA-MB-231 cells were treated with a test compound dissolved in DMSO at the concentration of 0, 0.3 μM, 0.5 μM, 1 μM, 2 μM, 3 μM, 5 μM, 10 μM, 20 μM, 30 μM, 50 μM and 100 μM for 72 hours. Treated cells were examined under CellTiter-Glo® Luminescent Cell Viability Assay Kit (Promega), and luminescence were recorded with Envision.

The test system of assay [7] is BEL-7402 cells. As to the kind of experiment: Inhibition of liver cancer cell BEL-7402 in vitro by SRB. Particulars: Homo sapiens, 10^−6M, 72 hours, read-out: The inhibition percentage of cell proliferation by the compounds with a concentration of 10^−6M, BEL-7402 cells. The procedure:
A: Inhibition of Liver Cancer Cell BEL-7402 In Vitro by the Compounds Detected by SRB
The liver cancer BEL-7402 cells from ATCC were maintained in DMDM, 10% NCS and 50 μg/ml KANA at 37° C. in a 5% CO2 atmosphere, and were subseeded in a 96-well culture plate at a concentration of 6×10^3 cells/well. BEL-7402 cells were treated with a test compound dissolved in DMSO at the concentration of 0, 10^−4M, 10^−5M, 10^−6M, 10^−7M, 10^−8M for 72 hours. OD value was tested by SRB method, and the inhibition percentage was calculated.

Usually IC50 stands for the concentration at which inhibition is half-maximal. Turning to `CC(C)=CCc1c(O)cc(O)c2c(=O)c(O)c(-c3ccc(C(F)(F)F)cc3)oc12` [Compound 1, 2-(4-trifluoromethylphenyl)-3,5,7-trihydroxy-8-(3-methyl-2-buten-1-yl)-4H-chromen-4-one], the IC50 in assay [1] is 1000 to 4000 nM; in assay [2] it was 1000 to 4000 nM; in assay [4], 824 nM; in assay [5], 2010 nM; in assay [6] it was 1070 nM. Also, the inhibition at 1 µM in assay [3] worked out at 43.7%; in assay [7] it was 23.7%.
